Data: patent US20140031296A1, “NEW SYNTHETIC PEPTIDES AND THEIR USE” (PERGAMUM AB, priority 2011, published 2014)

How the values were obtained:
[1] = system: S. aureus (CCUG 1800); assay: Minimal microbicidal concentration (MMC99) assay, S. aureus; format: cell-based; details: 2 hours; for MMC99 μM in 50% SWF: 50% heat inactivated simulated wound fluid
Protocol: Antimicrobial Activity was Measured as Bactericidal Effect on S. aureus Using Minimal Microbicidal Concentration, MMC99, Assay)
S. aureus (#1800; CCUG, Gothenburg, Sweden) cultured on blood-agar plates [Columbia agar (Oxoid, Basingstoke, UK) supplemented with 5% defibrinated horse blood (National Veterinary Institute (SVA), Uppsala, Sweden)] were transferred to brain heart infusion broth (3.7% BHI; Difco, BD Diagnostics, Franklin Lakes, N.J., USA) and incubated in a shaker at 250 rpm+37° C. over night. The culture was thereafter be diluted 1:10 in fresh BHI broth and incubated for additional two hours to reach log-phase growth. The bacteria were pelleted and suspended in 1% BHI medium (BHI broth diluted 100 times in ultra-pure water) to a concentration of 10^7 bacteria/ml as estimated by measuring optical density at 600 nm. Peptides were serially diluted by two-fold steps from 160 μM to 1.25 μM in 1% BHI medium. The peptides (100 μl) were thereafter incubated with bacteria (5 μl á 10^7 bact./ml) for 2 hours at +37° C. Drops (5 μl) of the suspension were placed on blood agar plates. The blood agar plates were incubated over night at +37° C. The MMC99 values, i.e. the lowest peptide concentration needed to achieve a 99% reduction of viable bacteria, were recorded (Table 3). The concentration of the bacterial suspension used in the assay was confirmed by viable counts on blood agar plates.
S. aureus (#1800; CCUG, Gothenburg, Sweden) cultured on blood-agar plates [Columbia agar (Oxoid, Basingstoke, UK) supplemented with 5% defibrinated horse blood (National Veterinary Institute (SVA), Uppsala, Sweden)] were transferred to brain heart infusion broth (3.7% BHI; Difco, BD Diagnostics, Franklin Lakes, N.J., USA) and incubated in a shaker at 250 rpm+37° C. over night. The culture was thereafter be diluted 1:10 in fresh BHI broth and incubated for additional two hours to reach log-phase growth. The bacteria were pelleted and suspended in 1% BHI medium (BHI broth diluted 100 times in ultra-pure water) to a final concentration of 10^7 bacteria/ml as estimated by measuring optical density at 600 nm.
Peptides were serially diluted by two-fold steps from 400 μM to 0.78 μM in either 1% BHI medium or in 50% heat inactivated simulated wound fluid [SWF, containing 1 part 0.1% peptone (Oxoid, Basingstoke, UK) in saline and 1 part fetal bovine serum, diluted 2 times in ultra-pure water].
The peptides (100 μl) were thereafter incubated with bacteria (5 μl a 10^7 bact./ml) for 2 hours at +37° C. Drops (5 μl) of the suspension were placed on blood agar plates. The blood agar plates were incubated over night at +37° C. The MMC99 values, i.e. the lowest peptide concentration needed to achieve a 99% reduction of viable bacteria were recorded (Table 6). The concentration of the bacterial suspension used in the assay was confirmed by viable counts on blood agar plates.
The antimicrobial effects of the peptides 232 (SEQ ID NO: 78), and 220 (SEQ ID NO:67) were analysed by MMC99 (minimal microbicidal concentration) assay against S. aureus (CCUG 1800), MRSA (CCUG 41879), P. aeruginosa (ATCC 15442), E. coli (CCUG 31246), S. pyogenes (CCUG 4207), P. acnes (CCUG 1794T), S. epidermidis (ATCC12228), K. pneumoniae (ATCC 13883), A. baumannii (ATCC 19606), and C. albicans (ATCC 64549). The peptides were purchased from Biopeptide Company (San Diego, Calif., USA) and Bachem AG (Bubendorf, Switzerland) and results are presented in Table 8A and 8B respectively.
Peptides were serially diluted in two different assay medium, 1% BHI medium (brain-heart infusion medium) or 50% heat inactivated simulated wound fluid (SWF), and thereafter incubated with the microorganisms for 2 hours. Drops of the suspension were placed on blood agar plates. The MMC99 values, i.e. the lowest peptide concentration needed to achieve a 99% reduction of viable microorganisms, were recorded. As presented in Table 8, all the peptides have the ability to kill microorganisms frequently appearing in infections. […]

[2] = system: TNF-α production in LPS stimulated THP-1 cells; assay: Inhibition of TNF-α production in LPS stimulated THP-1 cells (ELISA); format: cell-based, human; details: mean relative secretion, basal = 0%; for TNF-α at 40 μM peptide: LPS-stimulated level without peptide = 100%; for TNF-α at 4 μM peptide / TNF-α at 10 μM peptide: stimulated = 100%
Protocol: (§1) After 6 hours of incubation at +37° C., 5% CO2 and in a humid atmosphere, the cell supernatants were collected, centrifuged and kept frozen in −20° C. until analyzed for TNF-α content by ELISA (R&D Systems, Minneapolis, Minn., USA). The results are presented as mean relative secretion (%), with stimulated TNF-α level without peptide added set to 100% and basal secretion set to 0% (Table 2).
as §1, with “incubation,” for “incubation at +37° C., 5% CO2 and in a humid atmosphere,”, “centrifuged,” for “centrifuged”, “5).” for “2).”

[3] = screen 1, 99% reduction of viable bacteria

Sequence | MMC99 μM in 1% BHI medium [1, 3] | TNF-α at 40 μM peptide ([2]; screen 1) | TNF-α at 40 μM peptide ([2]; screen 2) | further results
CFKWKRKMRKVR [Peptide 147] | 10 µM | 111% |  | 
CFLWRRLMRKLR [Peptide 228] |  |  | 53.6% | MMC99 μM in 1% BHI medium ([1]; screen 2): 12.5 µM; MMC99 μM in 50% SWF ([1]; screen 2): 50 µM; TNF-α at 4 μM peptide ([2]; screen 2): 106.6%; TNF-α at 10 μM peptide ([2]; screen 2): 95.4%
CFLWRRLMRKV [Peptide 237] |  |  | 89.2% | 
CFLWRRNMRKVR [Peptide 227] |  |  | 111.0% | 
CFLWRRSMRRLR [Peptide 236] |  |  | 94.4% | 
CFQWKRAMRKVR [Peptide 123] | 20 µM | 156% |  | 
CFQWKRAMRKVR [Peptide 144] | 10 µM | 140% |  | 
CFQWQKRMKRVK [Peptide 148] | 20 µM | 132% |  | 
CFQWQRKMRKVR [Peptide 143] | 20 µM | 153% |  | 
CFQWQRNMRKVR [Peptide 149] | 13.3 µM | 109% |  | 
CLNFKRGVRKIR [Peptide 141] | 20 µM | 109% |  | 
CRLWRRNMRKVR [Peptide 229] |  |  | 108.5% | 
CRLWRRRMRKVW [Peptide 233] |  |  | 90.7% | 
CWLWRRAMRKVW [Peptide 230] |  |  | 80.4% | MMC99 μM in 1% BHI medium ([1]; screen 2): 25 µM; MMC99 μM in 50% SWF ([1]; screen 2): 100 µM; TNF-α at 4 μM peptide ([2]; screen 2): 119.2%; TNF-α at 10 μM peptide ([2]; screen 2): 135.6%
EATKCFQWQRNMRKVR [Peptide 158] |  | 91% |  | 
FQWKPAIRKVR [Peptide 140] | >160 µM | 117% |  | 
FQWKRAMRKVR [Peptide 122] | 20 µM |  |  | 
FQWQPRIRKVR [Peptide 138] | >160 µM | 172% |  | 
FQWQRNIRKIR [Peptide 134] | 40 µM | 109% |  | 
FQWQRNIRKVR [Peptide 136] | >160 µM | 96% |  | 

Sequence | MMC99 μM in 1% BHI medium [1, 3] | TNF-α at 40 μM peptide ([2]; screen 1) | TNF-α at 40 μM peptide ([2]; screen 2) | further results
FQWQRNLRKLR [Peptide 135] | 20 µM | 103% |  | 
FQWQRNMRKVR [Peptide 133] | >160 µM | 135% |  | 
FQWQRPIRKVR [Peptide 137] | >160 µM | 137% |  | 
FQWQRRIRKVR [Peptide 124] | 20 µM | 128% |  | 
FQWRPGIRKLR [Peptide 139] | 45 µM | 148% |  | 
FQWRRAIRKVR [Peptide 125] | 20 µM | 150% |  | 
FWWQRKMRKVR [Peptide 131] | 5 µM | 87% |  | 
GRRRRSVQWCA [Peptide 223] |  |  | 104.4% | MMC99 μM in 1% BHI medium ([1]; screen 2): 25 µM
GRRRRSVQWCA [Peptide 255] |  |  | 100.7% | 
KKLWRRWWRKVL [Peptide 244] |  |  | 10.7% | MMC99 μM in 1% BHI medium ([1]; screen 2): 12.5 µM; MMC99 μM in 50% SWF ([1]; screen 2): 50 µM; TNF-α at 4 μM peptide ([2]; screen 2): 107.7%; TNF-α at 10 μM peptide ([2]; screen 2): 116.7%
KRQSLARTFKQWARNLRKVL [Peptide 215] |  |  | 1.3% | MMC99 μM in 1% BHI medium ([1]; screen 2): 6.25 µM; MMC99 μM in 50% SWF ([1]; screen 2): 25 µM; TNF-α at 4 μM peptide ([2]; screen 2): 86.6%; TNF-α at 10 μM peptide ([2]; screen 2): 69.6%
LRLWRRLMRKVW [Peptide 231] |  |  | 49.8% | MMC99 μM in 1% BHI medium ([1]; screen 2): 12.5 µM; MMC99 μM in 50% SWF ([1]; screen 2): 50 µM; TNF-α at 4 μM peptide ([2]; screen 2): 102.6%; TNF-α at 10 μM peptide ([2]; screen 2): 89.1%
LRLWRRSMRKVW [Peptide 235] |  |  | 89.3% | 
LRTWRRLTRKVW [Peptide 234] |  |  | 102.0% | 
LVKRLNRLWQFRKTAESQ [Peptide 216] |  |  | 121.9% | 
LVWIKRHIKKFK [Peptide 246] |  |  | 125.5% | 
NEADKCFQWQRNMRKVR [Peptide 109] | 160 µM | 47% |  | 
NQPTATKCFQWQRNMRKVR [Peptide 102] | >160 µM | 108% |  | 
NSLFEKLAQWLRQLRKVR [Peptide 222] |  |  | 32.9% | MMC99 μM in 1% BHI medium ([1]; screen 2): 12.5 µM; MMC99 μM in 50% SWF ([1]; screen 2): 100 µM; TNF-α at 4 μM peptide ([2]; screen 2): 89.2%; TNF-α at 10 μM peptide ([2]; screen 2): 65.9%
PEATKCFQWQRNMRKVR [Peptide 108] | >160 µM | 127% |  | 

Sequence | MMC99 μM in 1% BHI medium [1, 3] | TNF-α at 40 μM peptide ([2]; screen 1) | TNF-α at 40 μM peptide ([2]; screen 2) | further results
QESARKQFRWLRNLTKVL [Peptide 202] |  |  | 90.3% | 
QKRATKRFQWLRNLRKVL [Peptide 205] |  |  | 28.3% | MMC99 μM in 1% BHI medium ([1]; screen 2): 12.5 µM; MMC99 μM in 50% SWF ([1]; screen 2): 50 µM; TNF-α at 4 μM peptide ([2]; screen 2): 91.5%; TNF-α at 10 μM peptide ([2]; screen 2): 89.5%
QPEATKCFPWQRNMRKVR [Peptide 118] | >160 µM | 113% |  | 
QREARKFRQWLRNMTKVR [Peptide 203] |  |  | 98.1% | 
QREARKRFQWLRNMTKVR [Peptide 201] |  |  | 128.6% | 
QSAARTFKQWARNLRKTL [Peptide 210] |  |  | 101.0% | 
QSAKTACFLWRRNMRKVR [Peptide 226] |  |  | 108.7% | 
QSEATKCFLWRRNMRKVR [Peptide 225] |  |  | 111.6% | 
QSEATKRFQWLRNLRKVL [Peptide 217] |  |  | 103.0% | 
QSEYTKRYQWLRNLRKVL [Peptide 204] |  |  | 96.9% | 
QSLAEKLFWQLRNLRKVR [Peptide 221] |  |  | 94.4% | 
QSRATKRFQWHRNARKVL [Peptide 207] |  |  | 160.9% | 
QSRATKRFQWLRNHRKVL [Peptide 208] |  |  | 130.2% | 
TKCFLWRRNMRKVRG [Peptide 242] |  |  | 116.8% | 
VSQSEATKRFQWLRNLRKVL [Peptide 214] |  |  | 88.8% | 
VWIVKKQVKRIK [Peptide 245] |  |  | 146.3% | 
WFKCFQWQRNMRKVR [Peptide 243] |  |  | 113.1% | 
WRRWLRKSVKRL [Peptide 247] |  |  | 88.2% | 
